We go through four molecules from US20070207145A1, “MOUSE/HUMAN […] ANTI-PHE[…] AND USES THEREOF” (BOARD OF TRUSTEES OF THE UNIVERSITY OF ARKANSAS, priority 2003, published 2007).

For data set [1] the following is noted: in humans; cited from earlier work.
In data set [2] the test system is PCP's adverse health effects. Kind of data set: dose-dependent effects of mAb6B5 IgG on health and behavior of rats continuously infused with PCP. It is filed as in vivo. How it is done:
This series of experiments assessed the dose-dependent effects mAb6B5 IgG on measures of health and behavior (Laurenzana et al., 2003). Rats were implanted with s.c. osmotic minipumps filled to deliver PCP at a rate of 18 mg/kg/day. Baseline PCP-induced locomotor activity was assessed (24 hr after start of PCP infusion), and then saline or various doses of mAb6B5 IgG were administered i.v. The doses of mAb6B5 ranged from 1 mol-eq of serum PCP concentration at steady state (1.53 g/kg of mAb6B5 IgG), down to 0.003 mol-eq (0.005 g/kg).
On a daily basis, rats were assessed on the amount of food eaten, body weight, general health, and evidence of chromodacryorrhea (“bloody tears” or red lacrimal secretions), an indicator of PCP-induced stress. […] The dose-dependent effects of mAb6B5 IgG on body weight produced some of the most interesting and profound effects (FIG. 8). […] PCP-induced reductions in feeding and drinking behavior obviously contributed to the weight loss in these groups. But their eating behavior normalized by day 4, probably secondary to the development of tolerance to the drug. This allowed these rats to better maintain their health and well-being. […] The PCP-induced weight loss achieved maximum on about day 4 of the experiment. […] 25% of the rats died or had to be sacrificed for humane reasons. […]

For data set [3] the following is noted: rats, s.c. infusion 18 mg/kg/day; cited from earlier work.
A further data set deals with PCP receptor. The settings on record: drug discrimination and PCP receptor binding assays; cited from earlier work.
A short description of data set [4]: radioimmunoassay (RIA) with [3H]PCP. Format: binding.
Procedure: A 100 μl aliquot of [^3H]PCP (30,000-40,000 dpm) in RIA buffer (50 mM Tris-HCl adjusted to pH 7.6, 0.15M NaCl, 0.1% BSA and 0.2% NaN3) was added to 50×14 mm sample tubes (Sarsedt, Princeton, N.J.). Then 100 γl of appropriate concentration of test ligand was added to duplicate tubes. […] A 100 μl aliquot of this dilution was then added to all tubes except the tubes for non-specific binding. To nonspecific binding tubes 100 μl of RIA buffer was added. After vortex mixing, the tubes were incubated at 4-8° C. overnight. Next, 1 ml of RIA buffer containing 5% goat anti-mouse IgG (Pel-Freez Biologicals, Rogers, Ark.) and 5% polyethylene glycol 8000 (J. T. Baker Chemical Co.) was added. The tubes were incubated for 15 min at 4-8° C. and centrifuged at the same temperature for 15 min at 2000×g to precipitate the antibody-bound reactivity. The supernatant fluid was aspirated and the pellet was resuspended in the same test tube with 2 ml of scintillation fluid (Liquiscint, National Diagnostics, Manville, N.J.). The tube was placed in a 7 ml scintillation vial and the concentration of [^3H]PCP was determined by liquid scintillation spectrometry.
The IC50 for both methods very closely approximates the affinity of an antibody.

Regarding `c1ccc(C2(N3CCCCC3)CCCCC2)cc1` [PCP, Phencyclidine], in data set [1], the “volume of distribution (Vd)” value was 6.2 L/kg. In addition, the “rats that died or had to be sacrificed” value in data set [2] (PCP-saline and PCP-0.003 mol Eq groups, days 4 through 7, 18 mg/kg/day) stood at 25%. Moreover, in data set [2] (repeated PCP-saline control experiment), the “animals that died as a result of PCP administration” value is on record as 1 of 4. In data set [3], the “half-life (t1/2)” value was 4 h.
With `c1csc(C2(N3CCCCC3)CCCCC2)c1` [TCP, 1-[1-(2-thienyl)cyclohexyl]piperidine], the “potency relative to PCP (times more potent)” value in the data set on PCP receptor is “about 1.3 times”.
Consider `CCNC1(c2ccccc2)CCCCC1` [PCE, N-ethyl-1-phenylcyclohexylamine], for which the “potency relative to PCP (times more potent)” value in the data set on PCP receptor was roughly 6 times.

B1: ch-mAb6B5: mouse/human chimeric anti-PCP monoclonal antibody: mAb6B5 variable domains on human IgG2 heavy chain and kappa light chain constant domains (antibody)
heavy: MECSCVMLFLLSGTAGVLSEVQLQQSGPELVKPGASVKMSCKASGYTGTDYYIHWMKQSHGKSLEWIGYIYPNNGGNGYNQKFKGKATLTVDKSSSTAYMELRTLTSEDSAVYYCGRSTWDDFDYWGQGTTLTVSSASTKGPSVFPLAPCSRSTSESTAALGCLVKDYFPEPVTVSWNSGALTSGVHTFPAVLQSSGLYSLSSVVTVPSSNFGTQTYTCNVDHKPSNTKVDKTVERKCCVECPPCPAPPVAGPSVFLFPPKPKDTLMISRTPEVTCVVVDVSHEDPEVQFNWYVDGVEVHNAKTKPREEQFNSTFRVVSVLTVVHQDWLNGKEYKCKVSNKGLPAPIEKTISKTKGQPREPQVYTLPPSREEMTKNQVSLTCLVKGFYPSDIAVEWESNGQPENNYKTTPPMLDSDGSFFLYSKLTVDKSRWQQGNVFSCSVMHEALHNHYTQKSLSLSPGK
light: MKLPVRLLVLMFWIPASSSDVLMTQTPLSLPVSLGDQASISCRSSQTIVHSNGNTYLEWYLQKPGQSPKLLIYKVSNRFSGVPDRFSGSGSGTDFTLKISRVEAEDLGVYYCFQGTHAPYTFGGGTKLEIKTAAAPSVFIFPPSDEQLKSGTASVVCLLNNFYPREAKVQWKVDNALQSGNSQESVTEQDSKDSTYSLSSTLTLSKADYEKHKVYACEVTHQGLSSPVTKSFNRGEC
modifications: Amino acid sequence of anti-PCP ch-mAb6B5 heavy chain.; Amino acid sequence of anti-PCP ch-mAb6B5 light chain.
In data set [4], B1 registered an IC50 of 1.6 nM. The molecule also had an equilibrium dissociation constant (Kd) in data set [4] (chimeric antibody) of 1.6 nM.
